# Reference: PMC11546061, “Development and Evaluation of ABI-171, a New Fluoro-Catechin Derivative, for the Treatment of Idiopathic Pulmonary Fibrosis” (International Journal of Molecular Sciences, 2024)
# pIC50: −log10 of the molar value. Read-outs that look alike come from different tables or passages of the source.
# Tests used:
# [1] = test system: bleomycin-induced pulmonary fibrosis; test: Preventive bleomycin-induced IPF model (treatment from Day 0); type: in vivo, C57BL/6 mice; conditions: for body weight: Day 14 to 21 vs BLM model group, ABI compounds 60 mg/kg QD intranasal, pirfenidone 100 mg/kg oral thrice daily; for alveolitis and PF degrees (H&E and Masson staining): relative to bleomycin group; for hydroxyproline content in lung tissues: 21 days
# From the text: Consequently, we opted for intranasal delivery in our first IPF animal model, employing a validated BLM mouse model. […] The experiment considered the day of bleomycin injection as Day 0. […] The experiment was completed after 21 days.
# In the preventive model, male C57BL/6 mice, aged 8–10 weeks, were used to simulate the early intervention scenario where treatment begins immediately following the induction of lung injury. […] On day 0, pulmonary fibrosis was induced by administering a single intratracheal infusion of bleomycin at a dose of 3 U/kg body weight, dissolved in 50 μL of sterile saline. Treatment with the test compounds commenced immediately after bleomycin administration and continued daily for 21 days. Body weight, survival rate, and clinical signs were monitored throughout the study.
# At the end of the study period, the mice were sacrificed, and their lungs were harvested for histological and biochemical analyses. Lung tissues were fixed in 10% formalin and embedded in paraffin for histological examination using hematoxylin and eosin (H&E) staining to assess tissue morphology, and Masson’s trichrome staining to evaluate collagen deposition. Additionally, lung hydroxyproline content, a marker of collagen accumulation, was quantified using a colorimetric assay. Inflammatory cell infiltration was assessed by counting lymphocytes and neutrophils in bronchoalveolar lavage fluid (BALF).
# [2] = set-up: method as in PMID 36986543; conditions: mouse, plasma, cited from earlier work
# PIM2 = PIM2 (Homo sapiens, UniProt Q9P1W9); test: PIM2 kinase inhibition; type: biochemical
# From the text: Table 1 Best DYRK1A inhibitors. | column: PIM2 IC50
# PIM3 = PIM3 (Homo sapiens, UniProt Q86V86); test: PIM3 kinase inhibition; type: biochemical
# From the text: Table 1 Best DYRK1A inhibitors. | column: PIM3 IC50
# PIM1 = PIM1 (Homo sapiens, UniProt P11309); test: PIM1 kinase inhibition; type: biochemical
# DYRK1A = DYRK1A (Homo sapiens, UniProt Q13627); test: DYRK1A kinase inhibition; type: biochemical
# [3] = Pharmacokinetics and lung-tissue distribution after single IV, IN or PO dose; type: in vivo, C57BL/6 mice
# Protocol: Plasma concentrations were measured using LC-MS/MS, and PK parameters were calculated with WinNonlin. […] The formulation is based on the solubilizer and penetration enhancer (2-hydroxypropyl)-β-cyclodextrin (HP-β-CD), PEG-400, and water.
# They were given a commercial mice chow and water ad libitum. The experiments started after acclimation for at least 1 week. Dosing solutions were made fresh. Fasted mice were administered the test drug by oral (PO), intranasal (IN), and intravenous (IV) routes. […] […] […] Blood was collected into K2EDTA microtubes, kept on ice all the time and centrifuged within 30 min of collection. Blood samples in EDTA vacuum tubes were centrifuged at 4 °C at 15,000× g for 4 min; ~250 µL of plasma was collected into polyethylene tubes containing 50 µL of the ascorbic acid (AA)/TCEP stabilizing solution (20 mM AA and 13 mM TCEP in 50 mM K2HPO4 buffer. The pH of the solution was adjusted to 6.5 using 2 M NaOH). After collection, the plasma samples were immediately snap-frozen in isopropanol/carbon-dioxide dry ice and stored at −80 °C until analysis.
# Test catechin was extracted from the above-collected plasma through 3 successive additions of 350 µL of acetonitrile. The plasma and solvent mixture were vortex-mixed for 2 min then snap-frozen with isopropanol/carbon-dioxide dry ice and the extraction solvent was removed. The solvent fractions were pooled into a polyethylene tube kept on ice. The combined fractions were evaporated under a gentle stream of nitrogen at ambient temperature. The residue obtained after evaporation was reconstituted in 200 µL of 75 mM citric acid/25 mM ammonium acetate: acetonitrile (75:25, by vol), vortexed vigorously for 5 min, and 20 µL of the resulting solution was injected into the HPLC column. Lung tissue was collected and treated immediately to avoid product degradation. Within 5 min of extraction, about ~0.4 g of the tissue was homogenized with 1 mL of ice-cold 0.4 M sodium phosphate buffer containing 6 mg of ascorbic acid and 0.5 mg of Na2EDTA (final pH of 6.5). After centrifugation at 4 °C at 15,000× g for 4 min, the supernatant was collected into polyethylene tubes containing 50 µL of the AA/TCEP stabilizing solution (20 mM AA and 13 mM TCEP in 50 mM K2HPO4 buffer. The pH of the solution was adjusted to 6.5 using 2 M NaOH), immediately snap-frozen in isopropanol/carbon-dioxide dry ice and stored at −80 °C until analysis. Extraction was performed as described above for plasma.
# [4] = test system: bleomycin-induced pulmonary fibrosis; test: Therapeutic bleomycin-induced IPF model (treatment from Day 7); type: in vivo, C57BL/6 mice
# From the text: In this study, drug treatment commenced 7 days post-induction of pulmonary fibrosis using BLM, employing a therapeutic model.
# Pulmonary fibrosis was induced by a single intratracheal infusion of bleomycin at a dose of 3 U/kg body weight. Seven days post-bleomycin administration, when fibrosis was established, treatment with the test compounds commenced and continued daily for an additional 21 days.
# Throughout the treatment period, body weight, survival rate, and clinical signs were monitored. At the study’s conclusion, mice were sacrificed, and their lungs were harvested for comprehensive histological and biochemical analyses. Lung tissues were processed for H&E and Masson’s trichrome staining to evaluate fibrosis and collagen deposition. Lung hydroxyproline content was measured to quantify collagen accumulation. Inflammatory cell infiltration in BALF was assessed by counting lymphocytes and neutrophils.
# [5] = C57BL/6, inhaled or intranasal, mouse, IN (60 mg/kg), lung
# [6] = intranasal 50 mg/kg QD, from day 7 post-BLM
# [7] = oral 100 mg/kg QD, from day 7 post-BLM
# [8] = tissues from Group 4, vs BLM group
# [9] = vs BLM group, 60 mg/kg QD intranasal
# [10] = vs BLM group, 60 mg/kg QD intranasal, p < 0.05
# [11] = C57BL/6, mouse, IV (10 mg/kg), plasma
# [12] = oral 100 mg/kg once daily, from day 7 post-BLM
# PIM1, sequence (P11309 whole entry, species assumed): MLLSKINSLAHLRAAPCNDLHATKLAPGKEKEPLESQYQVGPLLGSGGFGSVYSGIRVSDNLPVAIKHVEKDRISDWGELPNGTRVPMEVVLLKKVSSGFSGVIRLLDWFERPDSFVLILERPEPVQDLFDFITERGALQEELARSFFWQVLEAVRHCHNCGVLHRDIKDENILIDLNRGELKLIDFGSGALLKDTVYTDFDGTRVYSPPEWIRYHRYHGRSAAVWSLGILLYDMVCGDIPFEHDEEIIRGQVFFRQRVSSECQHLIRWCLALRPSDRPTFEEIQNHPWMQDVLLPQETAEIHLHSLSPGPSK
# PIM2, sequence (Q9P1W9 whole entry, species assumed): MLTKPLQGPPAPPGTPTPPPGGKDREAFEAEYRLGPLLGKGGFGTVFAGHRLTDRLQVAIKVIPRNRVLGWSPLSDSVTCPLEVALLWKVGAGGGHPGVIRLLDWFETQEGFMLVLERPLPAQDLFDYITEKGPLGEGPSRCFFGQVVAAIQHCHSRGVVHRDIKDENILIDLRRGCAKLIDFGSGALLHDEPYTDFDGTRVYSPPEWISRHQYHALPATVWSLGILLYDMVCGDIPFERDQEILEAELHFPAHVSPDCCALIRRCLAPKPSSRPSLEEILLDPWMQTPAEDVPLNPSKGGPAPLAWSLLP
structure (smiles),measurement,setting,value
"Cc1ccc(=O)n(-c2ccccc2)c1 [pirfenidone, Pirfenidone, reference compound]",body weight,[1],significant increase in body weight
COc1cc(C(=O)O[C@@H]2Cc3c(O)cc(O)cc3O[C@H]2c2cc(O)c(O)c(O)c2)c(F)c(O)c1O [ABI-171],Tlast,[2]; IN (60 mg/kg),24 h
same,CL(IV),[2]; IV (5 mg/kg),60 mL/min/kg
same,Vz(IV),[2]; IV (5 mg/kg),17 L/kg
same,CL/F (PO),[2]; PO (100 mg/kg),101 mL/min/kg
same,"F (absolute oral bioavailability, PO/IV)",[2]; PO (100 mg/kg),16%
same,Tlast,[2]; PO (100 mg/kg),24 h
same,Vz/F (PO),[2]; PO (100 mg/kg),15.6 L/kg
same,pIC50,PIM2,6.59
same,pIC50,PIM3,6.09
same,pIC50,PIM1,7.06
same,pIC50,DYRK1A; read-out: DYRK1A IC50,7.14
same,AUC(0-inf),[3]; [5],23200 ng·h/mL
same,AUC(0-t),[3]; [5],23100 ng·h/mL
same,Tmax,[3]; [5],4 h
same,half-life,[3]; [5],236 min
same,Cmax,"[3]; C57BL/6, inhaled or intranasal, mouse, IN (60 mg/kg), lung, read-out: Cmax",8740 ng/g
same,AUC(0-t),"[3]; C57BL/6, mouse, PO (100 mg/kg), lung",214 ng·h/mL
same,Cmax,"[3]; C57BL/6, mouse, PO (100 mg/kg), lung, read-out: Cmax",231 ng/g
same,Cmax,"[3]; IN route (60 mg/kg), total not unbound drug, read-out: theoretical cellular concentration in the lungs at Cmax",~17.8 µM
same,Tlast,"[3]; mouse, IN (60 mg/kg), lung",24 h
same,Tlast,"[3]; mouse, PO (100 mg/kg), lung",24 h
same,BLM-induced lung collagen level,[4]; day 21 of treatment,significant reductions
same,BLM-induced lung fibronectin level,[4]; day 21 of treatment,significant reductions
same,body weight,[4]; [6],good recovery in body weight
same,survival,[4]; [6],complete survival
same,"BLM-induced lung injuries, Masson's and H&E scores","[4]; intranasal 10 and 50 mg/kg, oral 100 mg/kg QD",improvements
same,body weight,[4]; [7],good recovery in body weight
same,survival,[4]; [7],complete survival
same,E-cadherin levels in lung,"[4]; oral treatment, tissues from Group 4",significantly elevated
same,PIM1 level in lung,[4]; [8],significantly reduced
same,Smad3 (p-Smad3) levels in lung,[4]; [8],significantly reduces
same,Snail expression in lung,[4]; [8],reduce Snail expression
same,αSMA level in lung,[4]; [8],downregulating
same,body weight,[1],significant increase in body weight
same,alveolitis and PF degrees (H&E and Masson staining),[1]; 60 mg/kg QD intranasal,decrease in the alveolitis and PF degrees
same,hydroxyproline content in lung tissues,[1]; [9],significantly decreased
same,lymphocytes (BALF),[1]; [10],significantly reduced
same,neutrophils (BALF),[1]; [10],significantly reduced
O=C(O[C@@H]1Cc2c(O)cc(O)cc2O[C@H]1c1cc(O)c(O)c(O)c1)c1c(F)c(O)c(O)c(O)c1F [ABI-154],Tlast,[2]; PO (100 mg/kg),24 h
same,pIC50,PIM2,5.97
same,pIC50,PIM3,5.22
same,pIC50,PIM1,6.14
same,pIC50,DYRK1A; read-out: DYRK1A IC50,7.55
same,body weight,[1],no body weight gain effect
same,alveolitis and PF degrees (H&E and Masson staining),[1]; 60 mg/kg QD intranasal,decrease in the alveolitis and PF degrees
same,hydroxyproline content in lung tissues,[1]; [9],significantly decreased
"O=C(O[C@@H]1Cc2c(O)cc(O)cc2O[C@@H]1c1cc(O)c(O)c(O)c1)c1cc(O)c(O)c(O)c1 [EGCG, Epigallocatechin gallate, reference compound]",pIC50,PIM1,5.87
same,pIC50,DYRK1A,6.63
same,bioavailability,"[3]; C57BL/6, mouse, lung, po, 100 mg/kg, read-out: F (absolute oral bioavailability, PO/IV)",2%
same,Vd/F,"[3]; C57BL/6, mouse, lung, po, 100 mg/kg, read-out: Vz/F (PO)",2680 L/kg
same,AUC(0-inf),[3]; [11],1830 ng·h/mL
same,AUC(0-t),[3]; [11],1800 ng·h/mL
same,half-life,[3]; [11],342 min
same,Cmax,"[3]; C57BL/6, mouse, IV (10 mg/kg), plasma, read-out: Cmax",4420 ng/mL
same,Vd,"[3]; C57BL/6, mouse, IV (10 mg/kg), plasma, read-out: Vz(IV)",45.2 L/kg
same,T1/2,"[3]; EGCG column, PO (100 mg/kg), head prints Lung",5 h
same,activity in various assessments,[4]; [12],limited to moderate activity
same,mortality,[4]; [12],50%
